Data as given in patent US9833497B2, “Human originated EGF domain proteins and use of the same” (CHENGDU SOURCEBIO LIMITED-LIABILITY COMPANY, priority 2013, dated 2017).

How the values were obtained:
Assay type in all cases: cell-based
[1] = test system: E. coli DH5α; assay: Antibacterial activity: MIC and growth curve against E. coli DH5α in 96-well plate; details: minimal inhibitory concentration against E. coli DH5α; 96-well plate, 5×10^5 CFU/mL, 37° C., judged after 8 h
In short: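 Log-phase bacteria (OD600 ~0.5) resuspended in LB at 5×10^5 CFU/mL, exposed to recombinant protein at 50, 25, 12.5 μg/mL final in triplicate, 37 °C shaking at 175 rpm. OD600 read every 30 min; MIC is lowest concentration showing no growth.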

[2] = test system: E. coli BL21; assay: MIC against Gram-negative bacteria: E. coli BL21
In short: (§1)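 The recombinant human-originated EGF domain proteins were serially diluted two-fold against bacteria at 5×10^5 CFU/mL in LB medium. After shaken incubation at 37° C, the lowest concentration with no bacterial growth was recorded as the MIC.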

[3] = test system: Pseudomonas aeruginosa; assay: MIC against Gram-negative bacteria: Pseudomonas aeruginosa
In short: as §1

[4] = test system: Klebsiella pneumonia; assay: MIC against Gram-negative bacteria: Klebsiella pneumonia
In short: as §1

[5] = test system: Enterobacter cloacae; assay: MIC against Gram-negative bacteria: Enterobacter cloacae
In short: as §1

[6] = test system: Aeromonas hydrophila; assay: MIC against Gram-negative bacteria: Aeromonas hydrophila
In short: as §1

[7] = test system: Citrobacter diversus; assay: MIC against Gram-negative bacteria: Citrobacter diversus
In short: as §1

[8] = test system: Moraxella catarrhalis; assay: MIC against Gram-negative bacteria: Moraxella catarrhalis
In short: as §1

[9] = test system: Proteus mirabilis; assay: MIC against Gram-negative bacteria: Proteus mirabilis
In short: as §1

[10] = test system: Proteus vulgaris; assay: MIC against Gram-negative bacteria: Proteus vulgaris
In short: as §1

[11] = test system: Serratia marcescens; assay: MIC against Gram-negative bacteria: Serratia marcescens
In short: as §1

[12] = E. coli BL21, 10 h cultivation at 37° C., 5×10^5 CFU/mL
[13] = P. aeruginosa, 10 h cultivation at 37° C., 5×10^5 CFU/mL
[14] = K. pneumonia, 10 h cultivation at 37° C., 5×10^5 CFU/mL
[15] = E. cloacae, 10 h cultivation at 37° C., 5×10^5 CFU/mL
[16] = A. hydrophila, 10 h cultivation at 37° C., 5×10^5 CFU/mL
[17] = C. diversus, 10 h cultivation at 37° C., 5×10^5 CFU/mL
[18] = M. catarrhalis, 10 h cultivation at 37° C., 5×10^5 CFU/mL
[19] = P. mirabilis, 10 h cultivation at 37° C., 5×10^5 CFU/mL
[20] = P. vulgaris, 10 h cultivation at 37° C., 5×10^5 CFU/mL
[21] = S. marcescens, 10 h cultivation at 37° C., 5×10^5 CFU/mL
[22] = E. coli BL21, 10 h cultivation at 37° C.
[23] = P. aeruginosa, 10 h cultivation at 37° C.
[24] = K. pneumonia, 10 h cultivation at 37° C.
[25] = E. cloacae, 10 h cultivation at 37° C.
[26] = A. hydrophila, 10 h cultivation at 37° C.
[27] = C. diversus, 10 h cultivation at 37° C.
[28] = M. catarrhalis, 10 h cultivation at 37° C.
[29] = P. mirabilis, 10 h cultivation at 37° C.
[30] = P. vulgaris, 10 h cultivation at 37° C.
[31] = S. marcescens, 10 h cultivation at 37° C.
[32] = 10 h cultivation at 37° C., 5×10^5 CFU/mL, two-fold serial dilution

PRT420 (DIDECVTGIHNCSINETCFNIQGGFRCLAFECPENYRRSAATLQQEKTDTVRCI; listed as Homo sapiens)
MIC [1]: 50 µg/mL
MIC [2, 12]: 25 µg/mL
MIC [3, 13]: 12.5 µg/mL
MIC [4, 14]: 25 µg/mL
MIC [5, 15]: 50 µg/mL
MIC [6, 16]: 12.5 µg/mL
MIC [7, 17]: 50 µg/mL
MIC [8, 18]: 12.5 µg/mL
MIC [9, 19]: 50 µg/mL
MIC [10, 20]: 100 µg/mL
MIC [11, 21]: 50 µg/mL

PRT1007 (HVNPCESRPCQNGATCMAQPSGYLCQCAPGYDGQNCS; listed as Homo sapiens)
MIC [1]: 25 µg/mL
MIC [2, 22]: 12.5 µg/mL
MIC [3, 23]: 25 µg/mL
MIC [4, 24]: 50 µg/mL
MIC [5, 25]: 12.5 µg/mL
MIC [6, 26]: 50 µg/mL
MIC [7, 27]: 12.5 µg/mL
MIC [8, 28]: 50 µg/mL
MIC [9, 29]: 25 µg/mL
MIC [10, 30]: 12.5 µg/mL
MIC [11, 31]: 25 µg/mL

PRT948 (DINECLSNPCSSEGSLDCIQLTNDYLCVCRSAFTGRHCE; listed as Homo sapiens)
MIC [1]: 50 µg/mL
MIC [2, 22]: 12.5 µg/mL
MIC [3, 23]: 50 µg/mL
MIC [4, 24]: 12.5 µg/mL
MIC [5, 25]: 50 µg/mL
MIC [6, 26]: 25 µg/mL
MIC [7, 27]: 12.5 µg/mL
MIC [8, 28]: 50 µg/mL
MIC [9, 29]: 25 µg/mL
MIC [10, 30]: 12.5 µg/mL
MIC [11, 31]: 50 µg/mL

PRT62 (ASGDCVPSPCHNGGTCLEEEEGVRCLCLPGYGGDLCD; listed as Homo sapiens)
MIC [1]: 12.5 µg/mL
MIC (μg/mL) E. coli BL21 ([2]; E. coli BL21, 96-well plate, 5×10^5 CFU/mL, 37° C., 10 h): 100 µg/mL
MIC (μg/mL) P. aeruginosa ([3]; Pseudomonas aeruginosa, 96-well plate, 5×10^5 CFU/mL, 37° C., 10 h): 12.5 µg/mL
MIC (μg/mL) K. pneumonia ([4]; Klebsiella pneumonia, 96-well plate, 5×10^5 CFU/mL, 37° C., 10 h): 12.5 µg/mL
MIC (μg/mL) E. cloacae ([5]; Enterobacter cloacae, 96-well plate, 5×10^5 CFU/mL, 37° C., 10 h): 12.5 µg/mL
MIC (μg/mL) A. hydrophila ([6]; Aeromonas hydrophila, 96-well plate, 5×10^5 CFU/mL, 37° C., 10 h): 25 µg/mL
MIC (μg/mL) C. diversus ([7]; Citrobacter diversus, 96-well plate, 5×10^5 CFU/mL, 37° C., 10 h): 12.5 µg/mL
MIC (μg/mL) M. catarrhalis ([8]; Moraxella catarrhalis, 96-well plate, 5×10^5 CFU/mL, 37° C., 10 h): 25 µg/mL
MIC (μg/mL) P. mirabilis ([9]; Proteus mirabilis, 96-well plate, 5×10^5 CFU/mL, 37° C., 10 h): 12.5 µg/mL
MIC (μg/mL) P. vulgaris ([10]; Proteus vulgaris, 96-well plate, 5×10^5 CFU/mL, 37° C., 10 h): 12.5 µg/mL
MIC (μg/mL) S. marcescens ([11]; Serratia marcescens, 96-well plate, 5×10^5 CFU/mL, 37° C., 10 h): 25 µg/mL

PRT1416 (IEICAADCGGHGVCVGGTCRCEDGWMGAACDQ; listed as Homo sapiens)
MIC [1]: 25 µg/mL
MIC against E. coli BL21 ([2]; E. coli BL21, 5×10^5 CFU/mL, 10 h cultivation at 37° C.): 12.5 µg/mL
MIC against P. aeruginosa ([3]; Pseudomonas aeruginosa, 5×10^5 CFU/mL, 10 h cultivation at 37° C.): 25 µg/mL
MIC against K. pneumonia ([4]; Klebsiella pneumonia, 5×10^5 CFU/mL, 10 h cultivation at 37° C.): 50 µg/mL
MIC against E. cloacae ([5]; Enterobacter cloacae, 5×10^5 CFU/mL, 10 h cultivation at 37° C.): 25 µg/mL
MIC against A. hydrophila ([6]; Aeromonas hydrophila, 5×10^5 CFU/mL, 10 h cultivation at 37° C.): 25 µg/mL
MIC against C. diversus ([7]; Citrobacter diversus, 5×10^5 CFU/mL, 10 h cultivation at 37° C.): 12.5 µg/mL
MIC against M. catarrhalis ([8]; Moraxella catarrhalis, 5×10^5 CFU/mL, 10 h cultivation at 37° C.): 25 µg/mL
MIC against P. mirabilis ([9]; Proteus mirabilis, 5×10^5 CFU/mL, 10 h cultivation at 37° C.): 12.5 µg/mL
MIC against P. vulgaris ([10]; Proteus vulgaris, 5×10^5 CFU/mL, 10 h cultivation at 37° C.): 25 µg/mL
MIC against S. marcescens ([11]; Serratia marcescens, 5×10^5 CFU/mL, 10 h cultivation at 37° C.): 12.5 µg/mL

PRT1049 (WGENCAQTCQCHHGGTCHPQDGSCICPLGWTGHHCL; listed as Homo sapiens)
MIC [1]: 12.5 µg/mL
MIC E. coli BL21 [2, 32]: 25 µg/mL
MIC P. aeruginosa [3, 32]: 12.5 µg/mL
MIC K. pneumonia [4, 32]: 25 µg/mL
MIC E. cloacae [5, 32]: 12.5 µg/mL
MIC A. hydrophila [6, 32]: 12.5 µg/mL
MIC C. diversus [7, 32]: 12.5 µg/mL
MIC M. catarrhalis [8, 32]: 12.5 µg/mL
MIC P. mirabilis [9, 32]: 50 µg/mL
MIC P. vulgaris [10, 32]: 12.5 µg/mL
MIC S. marcescens [11, 32]: 50 µg/mL

PRT171 (CDPSPCKNGGSCTDLENSYSCTCPPGFYGKIC; listed as Homo sapiens)
MIC [1]: 25 µg/mL
MIC (μg/mL) E. coli BL21 [2, 12]: 50 µg/mL
MIC (μg/mL) P. aeruginosa [3, 13]: 25 µg/mL
MIC (μg/mL) K. pneumonia [4, 14]: 12.5 µg/mL
MIC (μg/mL) E. cloacae [5, 15]: 25 µg/mL
MIC (μg/mL) A. hydrophila [6, 16]: 50 µg/mL
MIC (μg/mL) C. diversus [7, 17]: 25 µg/mL
MIC (μg/mL) M. catarrhalis [8, 18]: 12.5 µg/mL
MIC (μg/mL) P. mirabilis [9, 19]: 25 µg/mL
MIC (μg/mL) P. vulgaris [10, 20]: 50 µg/mL
MIC (μg/mL) S. marcescens [11, 21]: 25 µg/mL
